The compounds below were run against T1, human kinase Mps-1 (Homo sapiens, UniProt P33981) (assay: Mps-1 kinase assay (HTRF)).
T1 construct: N-terminally GST-tagged human full length recombinant Mps-1 kinase; GST (N); purchased Invitrogen, Karslruhe, Germany PV4071
T1 sequence (P33981 1-857): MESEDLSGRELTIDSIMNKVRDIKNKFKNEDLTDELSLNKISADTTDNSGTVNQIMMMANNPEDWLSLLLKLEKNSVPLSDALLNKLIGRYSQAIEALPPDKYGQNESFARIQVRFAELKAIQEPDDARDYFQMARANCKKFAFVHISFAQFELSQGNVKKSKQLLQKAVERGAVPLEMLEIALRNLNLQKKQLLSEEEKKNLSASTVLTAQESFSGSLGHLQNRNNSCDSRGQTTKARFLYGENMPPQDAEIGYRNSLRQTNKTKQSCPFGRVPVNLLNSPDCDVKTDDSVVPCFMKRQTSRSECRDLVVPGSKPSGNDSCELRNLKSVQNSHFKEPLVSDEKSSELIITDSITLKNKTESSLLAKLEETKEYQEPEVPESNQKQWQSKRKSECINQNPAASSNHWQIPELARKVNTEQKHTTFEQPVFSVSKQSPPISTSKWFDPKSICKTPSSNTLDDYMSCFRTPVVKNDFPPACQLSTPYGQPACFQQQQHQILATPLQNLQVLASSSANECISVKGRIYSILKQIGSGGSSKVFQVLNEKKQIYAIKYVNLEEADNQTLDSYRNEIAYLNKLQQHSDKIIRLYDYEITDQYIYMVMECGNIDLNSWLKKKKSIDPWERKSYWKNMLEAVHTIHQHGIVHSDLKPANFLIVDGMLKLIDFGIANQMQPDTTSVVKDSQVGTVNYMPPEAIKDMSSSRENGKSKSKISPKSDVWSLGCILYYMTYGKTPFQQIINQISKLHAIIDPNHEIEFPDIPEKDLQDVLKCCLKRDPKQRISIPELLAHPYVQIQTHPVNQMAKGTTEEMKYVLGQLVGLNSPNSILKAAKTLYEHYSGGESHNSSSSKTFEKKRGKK
Format: biochemical

| Structure (SMILES) | IC50 |
| --- | --- |
| CCN(CC)C(=O)c1ccc(Nc2nc3ccc(-c4ccc(C(=O)NCC(C)(C)C)cc4)cn3n2)c(OC)c1 [Example 11.027, 4-[(6-{4-[(2,2-dimethylpropyl)carbamoyl]phenyl}[1,2,4]tria-zolo[1,5-a]pyridin-2-yl)amino]-N,N-diethyl-3-methoxybenzamide] | 35.8 nM |
| CCOc1cc(C(=O)NCC(C)(C)O)ccc1Nc1nc2ccc(-c3ccc(C(=O)NCCC(F)(F)F)cc3)cn2n1 [Example 11.034, 3-ethoxy-N-(2-hydroxy-2-methylpropyl)-4-[(6-{4-[(3,3,3-trifluoropropyl)carbamoyl]phenyl}[1,2,4]tria-zolo[1,5-a]pyridin-2-yl)amino]benzamide] | 1.38 nM |
| CCOc1cc(C(=O)NC(C)(C)CO)ccc1Nc1nc2ccc(-c3ccc(C(=O)NCC(C)C)cc3)cn2n1 [Example 11.035, 3-ethoxy-N-(1-hydroxy-2-methylpropan-2-yl)-4-[(6-{4-[(2-methylpropyl)carbamoyl]phenyl}[1,2,4]triazolo [1,5-a]pyridin-2-yl)amino]benzamide] | 1.92 nM |
| CCOc1cc(C(=O)NCC(C)(C)O)ccc1Nc1nc2ccc(-c3ccc(C(=O)NCC(C)C)cc3)cn2n1 [Example 11.036, 3-ethoxy-N-(2-hydroxy-2-methylpropyl)-4-[(6-{4-[(2-methylpropyl)carbamoyl]phenyl}[1,2,4]triazolo [1,5-a]pyridin-2-yl)amino]benzamide] | 2.58 nM |
| CCN(CC)C(=O)c1ccc(Nc2nc3ccc(-c4ccc(C(=O)NCC(F)(F)F)cc4)cn3n2)cc1 [Example 11.038, N,N-diethyl-4-[(6-{4-[(2,2,2-trifluoroethyl)carbamoyl]phenyl}[1,2,4]triazolo [1,5-a]pyridin-2-yl)amino]benzamide] | 10.5 nM |
| C[C@@H](NC(=O)c1cccc(-c2ccc3nc(Nc4ccccc4C#N)nn3c2)c1)C(C)(C)C [Example 11.039, 3-{2-[(2-cyanophenyl)amino][1,2,4]triazolo[1,5-a]pyridin-6-yl}-N-[(2R)-3,3-dimethylbutan-2-yl]benzamide] | 1.71 nM |
| C[C@@H](NC(=O)c1cccc(-c2ccc3nc(Nc4ccccc4C#N)nn3c2)c1)C(F)(F)F [Example 11.040, 3-{2-[(2-cyanophenyl)amino][1,2,4]triazolo[1,5-a]pyridin-6-yl}-N-[(2R)-1,1,1-trifluoropropan-2-yl]benzamide] | 1.27 nM |
| CC(F)(F)CNC(=O)c1cccc(-c2ccc3nc(Nc4ccccc4C#N)nn3c2)c1 [Example 11.041, 3-{2-[(2-cyanophenyl)amino][1,2,4]triazolo[1,5-a]pyridin-6-yl}-N-(2,2-difluoropropyl)benzamide] | 2.54 nM |
| CC(C)(C)CNC(=O)c1cccc(-c2ccc3nc(Nc4ccccc4C#N)nn3c2)c1 [Example 11.042, 3-{2-[(2-cyanophenyl)amino][1,2,4]triazolo[1,5-a]pyridin-6-yl}-N-(2,2-dimethylpropyl)benzamide] | ≤ 1 nM |
| N#Cc1ccccc1Nc1nc2ccc(-c3cccc(C(=O)NCC(F)(F)C(F)(F)F)c3)cn2n1 [Example 11.043, 3-{2-[(2-cyanophenyl)amino][1,2,4]triazolo[1,5-a]pyridin-6-yl}-N-(2,2,3,3,3-pentafluoropropyl)benzamide] | ≤ 1 nM |
| N#Cc1ccccc1Nc1nc2ccc(-c3cccc(C(=O)NCC(F)(F)F)c3)cn2n1 [Example 11.044, 3-{2-[(2-cyanophenyl)amino][1,2,4]triazolo[1,5-a]pyridin-6-yl}-N-(2,2,2-trifluoroethyl)benzamide] | 1.47 nM |
| CC(C)(C)NC(=O)c1cccc(-c2ccc3nc(Nc4ccccc4C#N)nn3c2)c1 [Example 11.045, N-tert-butyl-3-{2-[(2-cyanophenyl)amino][1,2,4]triazolo[1,5-a]pyridin-6-yl}benzamide] | 1.18 nM |
| CC(C)(CO)NC(=O)c1cccc(-c2ccc3nc(Nc4ccccc4C#N)nn3c2)c1 [Example 11.046, 3-{2-[(2-cyanophenyl)amino][1,2,4]triazolo[1,5-a]pyridin-6-yl}-N-(1-hydroxy-2-methylpropan-2-yl)benzamide] | 3.29 nM |
| CC(C)[C@@H](C)NC(=O)c1cccc(-c2ccc3nc(Nc4ccccc4C#N)nn3c2)c1 [Example 11.047, 3-{2-[(2-cyanophenyl)amino][1,2,4]triazolo[1,5-a]pyridin-6-yl}-N-[(2R)-3-methylbutan-2-yl]benzamide] | 4.15 nM |
| N#Cc1ccccc1Nc1nc2ccc(-c3cccc(C(=O)NCCC(F)(F)F)c3)cn2n1 [Example 11.048, 3-{2-[(2-cyanophenyl)amino][1,2,4]triazolo[1,5-a]pyridin-6-yl}-N-(3,3,3-trifluoropropyl)benzamide] | 3.95 nM |
| CC(C)CNC(=O)c1cccc(-c2ccc3nc(Nc4ccccc4C#N)nn3c2)c1 [Example 11.049, 3-{2-[(2-cyanophenyl)amino][1,2,4]triazolo[1,5-a]pyridin-6-yl}-N-isobutylbenzamide] | 3.39 nM |

Further lines, results first:

| IC50 | Structure (SMILES) |
| --- | --- |
| ≤ 1 nM | CCOc1cc(C(=O)NCCO)ccc1Nc1nc2ccc(-c3ccc(C(=O)NCC(F)(F)F)cc3)cn2n1 [Example 11.028, 3-ethoxy-N-(2-hydroxyethyl)-4-[(6-{4-[(2,2,2-trifluoroethyl)carbamoyl]phenyl}[1,2,4]triazolo [1,5-a]pyridin-2-yl)amino]benzamide] |
| ≤ 1 nM | CCOc1cc(C(=O)NC(C)(C)CO)ccc1Nc1nc2ccc(-c3ccc(C(=O)NCC(F)(F)F)cc3)cn2n1 [Example 11.029, 3-ethoxy-N-(1-hydroxy-2-methylpropan-2-yl)-4-[(6-{4-[(2,2,2-trifluoroethyl)carbamoyl]phenyl}[1,2,4]triazolo [1,5-a]pyridin-2-yl)amino]benzamide] |
| ≤ 1 nM | CCOc1cc(C(=O)NC(C)(C)C)ccc1Nc1nc2ccc(-c3ccc(C(=O)NCC(F)(F)F)cc3)cn2n1 [Example 11.030, N-tert-butyl-3-ethoxy-4-[(6-{4-[(2,2,2-trifluoroethyl)carbamoyl]phenyl}[1,2,4]triazolo [1,5-a]pyridin-2-yl)amino]benzamide] |
| ≤ 1 nM | CCNC(=O)c1ccc(Nc2nc3ccc(-c4ccc(C(=O)NCC(F)(F)F)cc4)cn3n2)c(OCC)c1 [Example 11.031, 3-ethoxy-N-ethyl-4-[(6-{4-[(2,2,2-trifluoroethyl)carbamoyl]phenyl}[1,2,4]triazolo [1,5-a]pyridin-2-yl)amino]benzamide] |
| ≤ 1 nM | CCOc1cc(C(=O)NCC(C)(C)O)ccc1Nc1nc2ccc(-c3ccc(C(=O)NCC(F)(F)F)cc3)cn2n1 [Example 11.032, 3-ethoxy-N-(2-hydroxy-2-methylpropyl)-4-[(6-{4-[(2,2,2-trifluoroethyl)carbamoyl]phenyl}[1,2,4]triazolo [1,5-a]pyridin-2-yl)amino]benzamide] |
| ≤ 1 nM | CCOc1cc(C(=O)N(C)CCO)ccc1Nc1nc2ccc(-c3ccc(C(=O)NCC(F)(F)F)cc3)cn2n1 [Example 11.033, 3-ethoxy-N-(2-hydroxyethyl)-N-methyl-4-[(6-{4-[(2,2,2-trifluoroethyl)carbamoyl]phenyl}[1,2,4]triazolo [1,5-a]pyridin-2-yl)amino]benzamide] |
| ≤ 1 nM | O=C(NCCO)c1ccc(Nc2nc3ccc(-c4ccc(C(=O)NCC(F)(F)F)cc4)cn3n2)c(OCC(F)(F)F)c1 [Example 11.037, N-(2-hydroxyethyl)-3-(2,2,2-trifluoroethoxy)-4-[(6-{4-[(2,2,2-trifluoroethyl)carbamoyl]phenyl}[1,2,4]triazolo [1,5-a]pyridin-2-yl)amino]benzamide] |
